The source of these data is patent US20240024488A1, “COMPOUNDS AND USES THEREOF” (Foghorn Therapeutics Inc., priority 2020, published 2024).

The target in one experiment is T1, HiBit-BRM fusion protein (Homo sapiens, UniProt P51531).
T1 construct: expressed in transfected cells
Nature of the experiment: HiBiT-BRM cell-based degradation assay (Nano-Glo HiBiT Lytic Detection, 24 h). Conditions: HeLa cell line expressing HiBiT-BRM; for DC50: read-out: BRM HiBit Degradation IC50. The essentials: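 Luminescence from reconstituted NanoBiT luciferase in lysed HeLa HiBiT-BRM cells served as the measure of remaining BRM after 24 h treatment. Compounds were tested from 30 μM final downward in 3-fold steps. DMSO and 2 μM of a standard BRM/BRG1 degrader defined the scale limits.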
(In general: With HiBiT, luminescence reflects the tagged protein that the partner subunit can reach.)

Experiment [1] concerns the target T2, HiBit-BRG1 fusion protein (Homo sapiens, UniProt P51532).
T2 construct: expressed in transfected cells
The experiment is described as follows: HiBiT-BRG1 cell-based degradation assay (Nano-Glo HiBiT Lytic Detection, 24 h). Conditions: HeLa cell line expressing HiBit-BRG1 and LgBit; for Dmax: read-out: BRG1 HiBit Degradation Maximum (%); for DC50: read-out: BRMG1 HiBit Degradation IC50. The essentials:
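Stable HeLa line co-expressing HiBit-BRG1 and LgBit, 5000 cells/well, treated 24 h in a tissue culture incubator. Lysed with Nano-Glo HiBiT lytic reagent, luminescence read. % degradation normalized to DMSO (high control) and 2 μM reference BRM/BRG1 degrader (low control).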

T2 sequence (P51532 whole entry, the tested form may be a part): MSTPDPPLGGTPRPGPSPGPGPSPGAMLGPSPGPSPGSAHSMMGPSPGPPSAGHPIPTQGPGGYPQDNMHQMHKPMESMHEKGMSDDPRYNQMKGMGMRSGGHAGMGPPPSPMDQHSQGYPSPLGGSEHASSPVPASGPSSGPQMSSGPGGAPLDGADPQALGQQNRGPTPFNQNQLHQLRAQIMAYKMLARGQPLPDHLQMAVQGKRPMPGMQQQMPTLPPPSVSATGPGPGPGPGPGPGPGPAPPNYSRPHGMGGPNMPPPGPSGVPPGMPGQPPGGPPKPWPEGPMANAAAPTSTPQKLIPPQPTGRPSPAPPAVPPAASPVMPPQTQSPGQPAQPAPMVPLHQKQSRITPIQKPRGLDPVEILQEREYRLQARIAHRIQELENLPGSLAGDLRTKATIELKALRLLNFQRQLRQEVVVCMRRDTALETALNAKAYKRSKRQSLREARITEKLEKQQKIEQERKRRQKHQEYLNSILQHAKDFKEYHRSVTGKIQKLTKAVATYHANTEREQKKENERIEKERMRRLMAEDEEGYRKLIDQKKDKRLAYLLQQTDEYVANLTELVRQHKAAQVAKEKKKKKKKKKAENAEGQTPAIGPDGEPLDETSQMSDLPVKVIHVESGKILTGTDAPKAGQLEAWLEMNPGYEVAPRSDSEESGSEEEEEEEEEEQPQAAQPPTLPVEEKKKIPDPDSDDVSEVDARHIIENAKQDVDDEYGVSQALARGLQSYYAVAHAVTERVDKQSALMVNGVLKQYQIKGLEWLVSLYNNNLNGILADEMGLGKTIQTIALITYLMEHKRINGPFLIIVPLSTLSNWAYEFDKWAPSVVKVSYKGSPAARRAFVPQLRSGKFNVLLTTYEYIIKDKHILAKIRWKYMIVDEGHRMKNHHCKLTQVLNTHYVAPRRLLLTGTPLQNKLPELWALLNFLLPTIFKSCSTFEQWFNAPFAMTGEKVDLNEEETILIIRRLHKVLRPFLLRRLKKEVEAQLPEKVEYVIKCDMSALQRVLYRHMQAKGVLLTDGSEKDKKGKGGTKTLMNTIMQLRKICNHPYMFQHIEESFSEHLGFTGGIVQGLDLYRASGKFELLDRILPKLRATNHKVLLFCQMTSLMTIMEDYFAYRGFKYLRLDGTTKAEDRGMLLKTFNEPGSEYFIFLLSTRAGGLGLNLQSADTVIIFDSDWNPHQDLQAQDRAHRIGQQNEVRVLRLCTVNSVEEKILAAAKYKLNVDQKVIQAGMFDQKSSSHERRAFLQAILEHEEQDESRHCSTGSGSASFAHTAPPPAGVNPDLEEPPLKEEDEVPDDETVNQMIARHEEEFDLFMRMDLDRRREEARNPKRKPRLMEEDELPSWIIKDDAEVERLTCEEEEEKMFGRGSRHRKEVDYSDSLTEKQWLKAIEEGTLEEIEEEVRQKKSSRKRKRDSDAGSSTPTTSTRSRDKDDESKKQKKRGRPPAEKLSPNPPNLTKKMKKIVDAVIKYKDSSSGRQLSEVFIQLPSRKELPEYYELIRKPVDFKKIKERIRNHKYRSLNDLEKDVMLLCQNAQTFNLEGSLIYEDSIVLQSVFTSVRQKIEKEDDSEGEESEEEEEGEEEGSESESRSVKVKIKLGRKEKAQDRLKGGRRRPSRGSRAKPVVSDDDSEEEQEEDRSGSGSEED
T1 sequence (P51531 whole entry, the tested form may be a part): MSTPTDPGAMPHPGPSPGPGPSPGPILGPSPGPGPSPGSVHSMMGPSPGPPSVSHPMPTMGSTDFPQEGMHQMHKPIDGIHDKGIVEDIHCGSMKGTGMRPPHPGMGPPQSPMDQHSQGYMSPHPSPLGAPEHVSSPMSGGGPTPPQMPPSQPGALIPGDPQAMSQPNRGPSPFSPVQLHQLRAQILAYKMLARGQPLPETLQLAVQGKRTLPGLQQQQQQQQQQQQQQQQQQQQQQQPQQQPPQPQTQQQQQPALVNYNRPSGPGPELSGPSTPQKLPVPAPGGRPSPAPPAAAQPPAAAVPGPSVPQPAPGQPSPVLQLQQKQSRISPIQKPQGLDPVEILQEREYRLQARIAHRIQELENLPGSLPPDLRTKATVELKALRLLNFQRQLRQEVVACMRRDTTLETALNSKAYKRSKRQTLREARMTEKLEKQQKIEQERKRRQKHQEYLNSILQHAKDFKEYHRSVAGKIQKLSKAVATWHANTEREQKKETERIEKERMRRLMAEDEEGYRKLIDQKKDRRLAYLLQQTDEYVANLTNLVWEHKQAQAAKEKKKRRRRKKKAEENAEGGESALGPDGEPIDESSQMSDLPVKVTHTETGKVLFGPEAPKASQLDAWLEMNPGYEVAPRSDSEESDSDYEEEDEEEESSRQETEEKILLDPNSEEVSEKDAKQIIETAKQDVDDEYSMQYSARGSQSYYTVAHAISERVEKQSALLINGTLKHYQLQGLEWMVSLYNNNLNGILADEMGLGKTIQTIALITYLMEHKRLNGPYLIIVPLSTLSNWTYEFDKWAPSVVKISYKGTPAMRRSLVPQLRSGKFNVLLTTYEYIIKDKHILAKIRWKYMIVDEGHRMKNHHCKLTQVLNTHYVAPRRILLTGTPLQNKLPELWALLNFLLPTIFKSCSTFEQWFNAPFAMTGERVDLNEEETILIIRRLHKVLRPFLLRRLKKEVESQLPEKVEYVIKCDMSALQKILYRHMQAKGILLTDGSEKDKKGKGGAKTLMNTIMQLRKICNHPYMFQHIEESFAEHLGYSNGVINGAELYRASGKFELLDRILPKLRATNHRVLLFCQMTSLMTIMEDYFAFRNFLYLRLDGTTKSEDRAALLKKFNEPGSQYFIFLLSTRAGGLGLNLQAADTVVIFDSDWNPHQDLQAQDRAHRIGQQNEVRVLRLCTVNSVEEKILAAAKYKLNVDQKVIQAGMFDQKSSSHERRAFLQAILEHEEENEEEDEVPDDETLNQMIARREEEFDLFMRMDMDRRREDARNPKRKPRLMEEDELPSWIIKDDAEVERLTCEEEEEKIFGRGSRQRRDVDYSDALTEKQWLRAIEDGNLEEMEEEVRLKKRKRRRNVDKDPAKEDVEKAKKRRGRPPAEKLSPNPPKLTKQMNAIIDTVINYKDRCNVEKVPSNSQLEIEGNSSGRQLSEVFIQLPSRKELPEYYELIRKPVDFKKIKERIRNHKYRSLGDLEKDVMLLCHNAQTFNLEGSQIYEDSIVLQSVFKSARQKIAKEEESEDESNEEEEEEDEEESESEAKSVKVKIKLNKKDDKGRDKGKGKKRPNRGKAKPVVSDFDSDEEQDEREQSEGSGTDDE

As for `Cc1ncsc1-c1ccc([C@H](C)NC(=O)[C@@H]2C[C@@H](O)CN2C(=O)[C@@H](c2cc(OCCNCC34CC(c5cc6cc(-c7ccccc7O)nnc6[nH]5)(C3)C4)no2)C(C)C)cc1` (racemic) [Compound 213, (2S,4R)-4-hydroxy-1-((R)-2-(3-(2-(((3-(3-(2-hydroxyphenyl)-7H-pyrrolo[2,3-c]pyridazin-6-yl)bicyclo[1.1.1]pentan-1-yl)methyl)amino)ethoxy)isoxazol-5-yl)-3-methylbutanoyl)-N-((S)-1-(4-(4-methylthiazol-5-yl)phenyl)ethyl)pyrrolidine-2-carboxamide], on HiBit-BRM fusion protein, the “BRM HiBit Degradation Maximum (%)” value is on record as “A (“A” indicates maximum degradation ≥ 75%)” and the DC50 was more than 10 nM. In addition, in experiment [1], the Dmax was more than 75% and the DC50 is more than 100 nM.

Consider `Cc1ncsc1-c1ccc(CNC(=O)[C@@H]2C[C@@H](O)CN2C(=O)[C@@H](NC(=O)CCCCC(=O)N[C@@H]2CCc3[nH]c4nnc(-c5ccccc5O)cc4c3C2)C(C)(C)C)cc1` [Compound 170, N1-((S)-1-((2S,4R)-4-hydroxy-2-((4-(4-methylthiazol-5-yl)benzyl)carbamoyl)pyrrolidin-1-yl)-3,3-dimethyl-1-oxobutan-2-yl)-N6-((R)-3-(2-hydroxyphenyl)-6,7,8,9-tetrahydro-5H-pyridazino[3,4-b]indol-6-yl)adipamide], for which the “BRM HiBit Degradation Maximum (%)” value on HiBit-BRM fusion protein is “C (“C” indicates maximum degradation < 50%)”. Also, in experiment [1], the Dmax was less than 50%.

Consider `Cc1ncsc1-c1ccc(CNC(=O)[C@@H]2C[C@@H](O)CN2C(=O)[C@@H](NC(=O)CCCCCNC(=O)[C@@H]2CCc3[nH]c4nnc(-c5ccccc5O)cc4c3C2)C(C)(C)C)cc1` (racemic) [Compound 195, (R)-N-(6-(((S)-1-((2S,4R)-4-hydroxy-2-((4-(4-methylthiazol-5-yl)benzyl)carbamoyl)pyrrolidin-1-yl)-3,3-dimethyl-1-oxobutan-2-yl)amino)-6-oxohexyl)-3-(2-hydroxyphenyl)-6,7,8,9-tetrahydro-5H-pyridazino[3,4-b]indole-6-carboxamide], for which, at HiBit-BRM fusion protein, the “BRM HiBit Degradation Maximum (%)” value is listed as “B (“B” indicates maximum degradation ≥ 50%)” and the DC50 was more than 100 nM. For the same molecule, the Dmax in experiment [1] is less than 50%.

As for `Cc1ncsc1-c1ccc([C@H](C)NC(=O)[C@@H]2C[C@@H](O)CN2C(=O)[C@@H](c2cc(OCCNC(=O)[C@H]3C[C@@]4(Cc5cc(-c6ccccc6O)nnc5N4)C3)no2)C(C)C)cc1` (racemic) [Compound 70, (1R,3s)-N-(2-((5-((R)-1-((2S,4R)-4-hydroxy-2-(((S)-1-(4-(4-methylthiazol-5-yl)phenyl)ethyl)carbamoyl)pyrrolidin-1-yl)-3-methyl-1-oxobutan-2-yl)isoxazol-3-yl)oxy)ethyl)-3′-(2-hydroxyphenyl)-5′,7′-dihydrospiro[cyclobutane-1,6′-pyrrolo[2,3-c]pyridazine]-3-carboxamide], at HiBit-BRM fusion protein, the “BRM HiBit Degradation Maximum (%)” value is “B (“B” indicates maximum degradation ≥ 50%)” and the DC50 is more than 100 nM. Also, in experiment [1], the Dmax is less than 50%.

`Cc1ncsc1-c1ccc([C@H](C)NC(=O)[C@@H]2C[C@@H](O)CN2C(=O)[C@@H](c2cc(OCCNC(=O)CN3CC(c4cc5cc(-c6ccccc6O)nnc5[nH]4)C3)no2)C(C)C)cc1` (racemic) [Compound 249, (2S,4R)-4-hydroxy-1-((R)-2-(3-(2-(2-(3-(3-(2-hydroxyphenyl)-7H-pyrrolo[2,3-c]pyridazin-6-yl)azetidin-1-yl)acetamido)ethoxy)isoxazol-5-yl)-3-methylbutanoyl)-N-((S)-1-(4-(4-methylthiazol-5-yl)phenyl)ethyl)pyrrolidine-2-carboxamide]: on HiBit-BRM fusion protein, the “BRM HiBit Degradation Maximum (%)” value is on record as “A (“A” indicates maximum degradation ≥ 75%)” and the DC50 is more than 100 nM. Besides, the Dmax in experiment [1] is less than 50%.

Take `Cc1ncsc1-c1ccc([C@H](C)NC(=O)[C@@H]2C[C@@H](O)CN2C(=O)[C@@H](c2cc(CCCN3CC(c4cc5cc(-c6ccccc6O)nnc5[nH]4)C3)no2)C(C)C)cc1` (single isomer, unassigned) [Compound 204]: on HiBit-BRM fusion protein, the “BRM HiBit Degradation Maximum (%)” value is reported as “A (“A” indicates maximum degradation ≥ 75%)” and the DC50 was more than 100 nM. Moreover, in experiment [1], the Dmax is less than 50%.

Regarding `Cc1ncsc1-c1ccc(CNC(=O)[C@@H]2C[C@@H](O)CN2C(=O)[C@@H](NC(=O)CCCCC(=O)NC23CC(c4cc5cc(-c6ccccc6O)nnc5[nH]4)(C2)C3)C(C)(C)C)cc1` (racemic) [Compound 299, N1-((S)-1-((2S,4R)-4-hydroxy-2-((4-(4-methylthiazol-5-yl)benzyl)carbamoyl)pyrrolidin-1-yl)-3,3-dimethyl-1-oxobutan-2-yl)-N6-(3-(3-(2-hydroxyphenyl)-7H-pyrrolo[2,3-c]pyridazin-6-yl)bicyclo[1.1.1]pentan-1-yl)adipamide], at HiBit-BRM fusion protein, the “BRM HiBit Degradation Maximum (%)” value is given as “B (“B” indicates maximum degradation ≥ 50%)” and the DC50 is more than 1000 nM. Further, the Dmax in experiment [1] is less than 50%.

On to `Cc1ncsc1-c1ccc([C@H](C)NC(=O)[C@@H]2C[C@@H](O)CN2C(=O)[C@@H](c2cc(OCCN3CCC[C@@H]3c3c[nH]c4nnc(-c5ccccc5O)cc34)no2)C(C)C)cc1` (single isomer, unassigned) [Compound 228], for which the “BRM HiBit Degradation Maximum (%)” value at HiBit-BRM fusion protein is “C (“C” indicates maximum degradation < 50%)”. Besides, the Dmax in experiment [1] was less than 50%.

As to `Cc1ncsc1-c1ccc([C@H](C)NC(=O)[C@@H]2C[C@@H](O)CN2C(=O)[C@@H](c2cc(CN3CCc4[nH]c5nnc(-c6ccccc6O)cc5c4C3)no2)C(C)C)cc1` (single isomer, unassigned) [Compound 136], the “BRM HiBit Degradation Maximum (%)” value at HiBit-BRM fusion protein is listed as “C (“C” indicates maximum degradation < 50%)”. In experiment [1], the Dmax was less than 50%.

`Cc1ncsc1-c1ccc([C@H](C)NC(=O)[C@@H]2C[C@@H](O)CN2C(=O)[C@@H](c2cc(OCCNCCN3CC(c4cc5cc(-c6ccccc6O)nnc5[nH]4)C3)no2)C(C)C)cc1` (racemic) [Compound 300]: on HiBit-BRM fusion protein, the “BRM HiBit Degradation Maximum (%)” value is reported as “A (“A” indicates maximum degradation ≥ 75%)” and the DC50 was more than 100 nM. Also, the Dmax in experiment [1] was more than 50%.

In the case of `Cc1ncsc1-c1ccc([C@H](C)NC(=O)[C@@H]2C[C@@H](O)CN2C(=O)[C@@H](c2cc(N3CCC(N4CCc5[nH]c6nnc(-c7ccccc7O)cc6c5C4)CC3)no2)C(C)C)cc1` (racemic) [Compound 183, (2S,4R)-4-hydroxy-1-((R)-2-(3-(4-(3-(2-hydroxyphenyl)-5,7,8,9-tetrahydro-6H-pyrido[3′,4′:4,5]pyrrolo[2,3-c]pyridazin-6-yl)piperidin-1-yl)isoxazol-5-yl)-3-methylbutanoyl)-N-((S)-1-(4-(4-methylthiazol-5-yl)phenyl)ethyl)pyrrolidine-2-carboxamide], at HiBit-BRM fusion protein, the “BRM HiBit Degradation Maximum (%)” value was “A (“A” indicates maximum degradation ≥ 75%)” and the DC50 is more than 100 nM. Besides, the Dmax in experiment [1] is less than 50%.

In the case of `Cc1ncsc1-c1ccc([C@H](C)NC(=O)[C@@H]2C[C@@H](O)CN2C(=O)[C@@H](c2cc(N3CCC(CN4CC5(Cc6cc(-c7ccccc7O)nnc6N5)C4)CC3)no2)C(C)C)cc1` (racemic) [Compound 96, (2S,4R)-4-hydroxy-1-((R)-2-(3-(4-((3′-(2-hydroxyphenyl)-5′,7′-dihydrospiro[azetidine-3,6′-pyrrolo[2,3-c]pyridazin]-1-yl)methyl)piperidin-1-yl)isoxazol-5-yl)-3-methylbutanoyl)-N-((S)-1-(4-(4-methylthiazol-5-yl)phenyl)ethyl)pyrrolidine-2-carboxamide], at HiBit-BRM fusion protein, the “BRM HiBit Degradation Maximum (%)” value is on record as “A (“A” indicates maximum degradation ≥ 75%)” and the DC50 is more than 10 nM. In experiment [1], the Dmax was more than 50% and the DC50 is more than 100 nM.

Turning to `Cc1ncsc1-c1ccc([C@H](C)NC(=O)[C@@H]2C[C@@H](O)CN2C(=O)C(c2cc(N3CCC(C(=O)N4CCc5[nH]c6nnc(-c7ccccc7O)cc6c5C4)CC3)no2)C(C)C)cc1` (mixture of isomers) [Compound 205, (2S,4R)-4-hydroxy-1-((R)-2-(3-(4-(3-(2-hydroxyphenyl)-6,7,8,9-tetrahydro-5H-pyrido[3′,4′:4,5]pyrrolo[2,3-c]pyridazine-6-carbonyl)piperidin-1-yl)isoxazol-5-yl)-3-methylbutanoyl)-N-((S)-1-(4-(4-methylthiazol-5-yl)phenyl)ethyl)pyrrolidine-2-carboxamide], the “BRM HiBit Degradation Maximum (%)” value at HiBit-BRM fusion protein is on record as “C (“C” indicates maximum degradation < 50%)”. The Dmax in experiment [1] is less than 50%.

`Cc1ncsc1-c1ccc(CNC(=O)[C@@H]2C[C@@H](O)CN2C(=O)[C@@H](NC(=O)CCCCCCCCCCCCC(=O)N2CC(c3cc4cc(-c5ccccc5O)nnc4[nH]3)C2)C(C)(C)C)cc1` [Compound 17, (2S,4R)-4-hydroxy-1-((S)-2-(14-(3-(3-(2-hydroxyphenyl)-7H-pyrrolo[2,3-c]pyridazin-6-yl)azetidin-1-yl)-14-oxotetradecanamido)-3,3-dimethylbutanoyl)-N-(4-(4-methylthiazol-5-yl)benzyl)pyrrolidine-2-carboxamide]: on HiBit-BRM fusion protein, the “BRM HiBit Degradation Maximum (%)” value is given as “C (“C” indicates maximum degradation < 50%)”. Moreover, in experiment [1], the Dmax was less than 50%.

For the molecule `Cc1ncsc1-c1ccc(CNC(=O)[C@@H]2C[C@@H](O)CN2C(=O)[C@@H](NC(=O)CCCCCCCCCCCCCCCC(=O)N2CC(c3c[nH]c4nnc(-c5ccccc5O)cc34)C2)C(C)(C)C)cc1` [Compound 42, (2S,4R)-4-hydroxy-1-((S)-2-(17-(3-(3-(2-hydroxyphenyl)-7H-pyrrolo[2,3-c]pyridazin-5-yl)azetidin-1-yl)-17-oxoheptadecanamido)-3,3-dimethylbutanoyl)-N-(4-(4-methylthiazol-5-yl)benzyl)pyrrolidine-2-carboxamide], the “BRM HiBit Degradation Maximum (%)” value at HiBit-BRM fusion protein is on record as “C (“C” indicates maximum degradation < 50%)”. Also, the Dmax in experiment [1] was less than 50%.
